Where a SMILES comes first, the peptide text is derived from it. [ ]: non-standard residue; d: D form. The star is where a group is joined. Orn(α-tetramethylguanidino) = CN(C)C(=N[C@@H](CCCN)C(=O)*)N(C)C; Pro(trans-4-F) = O=C(O)[C@@H]1C[C@@H](F)CN1; Pro(cis-4-F) = O=C(O)[C@@H]1C[C@H](F)CN1
Columns and labels:
[1] = test system: in vitro expression of sfGFP in the presence of RF1; test: In vitro transcription-translation (iTT) assay of sfGFP in the presence of RF1; format: biochemical; settings: peptide 5 µmol/L, RF1, 37 °C, 2 h, fluorescence; normalized to absence of PrAMPs; n = 3
Protocol: The sfGFP expression analysis relied on the NEB PureExpress Delta RF123 Kit (New England Biolabs, Frankfurt, Germany). The DNA template encoding sfGFP with a UAG stop codon was amplified from the pY71sfGFP vector by PCR using the primers sfGFP fwd ([…]) and sfGFP rev ([…]). The release factor RF1 of the kit was diluted 50-fold (v/v) in 1× Pure System Buffer (PSB, 1 mol/L magnesium acetate, 0.5 mol/L K3PO4 (pH 7.3), 1 mol/L potassium glutamate, 1 mol/L NH4Cl, 0.5 mol/L CaCl2, 1 mol/L spermidine, 0.1 mol/L putrescine, 0.1 mol/L DTT). sfGFP expression was performed in a freshly prepared mixture of kit solution A (2 µL), kit solution B (1.5 µL), 50-fold diluted RF1 (0.5 µL), sfGFP template (0.1325 pmol, 35 ng) or water as control (0.25 µL), PSB (0.25 µL), and a PrAMP (50 or 0 µmol/L) dissolved in water (0.5 µL). The reaction mixture was transferred to a black 384-well plate (flat bottom, PS, 784900, Greiner Bio-One GmbH), covered with a lid, and incubated (37 °C, 2 h) in a microplate reader (Gemini EM, Molecular Devices, San Jose, CA, USA). Fluorescence was recorded every 10 min (λex = 485 nm, λem = 535 nm).

E. coli RN31 = test: Growth inhibition of E. coli RN31 during 90 min exponential growth phase; format: cell-based, Escherichia coli; settings: E. coli RN31, 33% TSB, peptide 8 µg/mL, 90 min, OD600; two biological replicates (n = 2)
Protocol: The following steps were performed on ice. Cells were harvested by centrifugation (4000× g, 4 °C, 25 min), washed with TICO buffer (20 mmol/L Hepes-KOH, pH 7.6, 6 mmol/L MgAc2, 30 mmol/L KAc), centrifuged (4000× g, 25 min, 4 °C), and stored at −80 °C. The cell pellet was suspended in TICO buffer (500 µL) and mixed with silica beads (zirconium glass pellets, 100 µm diameter; Carl Roth; Karlsruhe, Germany) to lyse the cells on a FastPrep-24^TM 5G (MP Biomedicals, Solon, OH, USA) using three disruption cycles (30 s, 6.0 m/s) interrupted by 1 min of incubation on ice after each cycle. Cell debris was removed by centrifugation (5000× g, 4 °C, 5 min), the supernatant was transferred to a new reaction tube, centrifuged (20,000× g, 4 °C, 20 min), the absorbance was recorded at 260 nm on a NanoPhotometer® NP80, and the sample was stored at −80 °C. […]

[2] = test system: 50S subunit assembly / 70S ribosome in E. coli RN31; test: Ribosome profile analysis (RPA), sucrose gradient of E. coli RN31 lysate; format: cell-based, Escherichia coli; settings: E. coli RN31, 33% TSB, peptide 8 µg/mL, 90 min, 5–25% sucrose gradient; n = 2 (Api137 n = 7)
Protocol: E. coli RN31 was grown in 33% TSB (37 °C, 200 rpm) from a starting OD600 of 0.05 to an OD600 of 0.2, measured on a NanoPhotometer® (NP80; Implen; Westlake Village, CA, USA), and divided into subcultures that were inoculated with a peptide ([…]) before being cultured for 90 min (37 °C, 200 rpm). The following steps were performed on ice. Cells were harvested by centrifugation (4000× g, 4 °C, 25 min), washed with TICO buffer (20 mmol/L Hepes-KOH, pH 7.6, 6 mmol/L MgAc2, 30 mmol/L KAc), centrifuged (4000× g, 25 min, 4 °C), and stored at −80 °C. The cell pellet was suspended in TICO buffer (500 µL) and mixed with silica beads (zirconium glass pellets, 100 µm diameter; Carl Roth; Karlsruhe, Germany) to lyse the cells on a FastPrep-24^TM 5G (MP Biomedicals, Solon, OH, USA) using three disruption cycles (30 s, 6.0 m/s) interrupted by 1 min of incubation on ice after each cycle. Cell debris was removed by centrifugation (5000× g, 4 °C, 5 min), the supernatant was transferred to a new reaction tube, centrifuged (20,000× g, 4 °C, 20 min), the absorbance was recorded at 260 nm on a NanoPhotometer® NP80, and the sample was stored at −80 °C.
A 5% (w/v) sucrose solution (6.5 mL) in TICO buffer containing 2-mercaptoethanol (4 mmol/L) was poured into an open-top centrifuge tube (13.2 mL, 14 × 89 mm, Beckman Coulter) and bottomed with a 25% (w/v) sucrose solution (6.5 mL) in TICO buffer containing 2-mercaptoethanol (4 mmol/L) using a cannula. The tube was sealed with parafilm and placed horizontally at 4 °C for 3 h and vertically at 4 °C for 30 min. A portion of the upper layer (550 µL) was replaced by lysate (500 µL, A260 = 30) and centrifuged using a swing-out rotor (SW 41 Ti, 52,500× g, 4 °C, 19 h) without a brake. The contents were transferred from bottom-up to obtain equal volumes in all wells of a black 96-well plate with a flat bottom (96 Well PP black Greiner Bio-One GmbH, Frickenhausen, Germany) using the Äkta Purifier 10 system, and absorbance was recorded at a wavelength of 254 nm. Fluorescence was measured in the plate using the PARADIGM at excitation (λex) and emission (λem) wavelengths of 485 nm and 535 nm for eGFP and 585 nm and 635 nm, respectively, for mCherry and normalized to the 70S ribosome peak (set to 100%).

[3] = molecular target: 70S ribosomes isolated from E. coli BW25113 (Escherichia coli, UniProt P60723+P61175); test: Fluorescence polarization, competition with cf-Api137 for 70S ribosome binding (Ki); settings: ratio of Ki to the Ki of Api137
Protocol: E. coli BW25113 were cultivated in LB medium and harvested by centrifugation (5000× g, 15 min, 4 °C) at an OD600 of 3–4. Cell pellets were washed in ribosome preparation buffer (20 mmol/L HEPES-KOH, 6 mmol/L MgCl2, 30 mmol/L NH4Cl, pH 7.6, 4 °C), centrifuged (4100× g, 30 min, 4 °C), and resuspended in ribosome preparation buffer (0.5 g/L) containing freshly added 2-mercaptoethanol (4 mmol/L) and lysozyme. Cells were incubated on ice for 30 min and disrupted in six cycles using a FastPrep-24^TM 5G instrument (MP Biomedicals, Eschwege, Germany) with the BigPrep 50 mL setting (40 s, 4.0 m/s), interrupted by one minute of incubation on ice between the cycles. After a centrifugation step (1620× g, 5 min, 4 °C), DNase I (5 U/mL) was added to the supernatant and incubated for 1 h on ice. Cell debris was removed by centrifugation at 16,000× g (30 min, 4 °C) and twice at 32,000× g (60 min, 4 °C). Crude ribosomes were obtained by centrifugation at 165,000× g (17 h, 4 °C). […]
Inhibition constants (Ki) were measured for the 70S ribosome extract using cf-labeled and unlabeled peptides in ribosome preparation buffer. […] Fluorescence polarization was determined on a PARADIGM^TM microplate reader in the top reading position (λex = 485 nm, λem = 535 nm). […] Ki values were calculated as described by Mathias and Jung.

[4] = molecular target: 70S ribosome isolated from E. coli BW25113 (E. coli (endogenous in E. coli BW25113)); test: fluorescence polarisation; competition: 2-fold dilution series (21 steps) of unlabeled peptide (20 uL, 300 umol/L) pre-incubated 90 min with crude 70S ribosome extract (at ~90% of the upper Kd plateau), then cf-Api137 (10 uL, 80 nmol/L) for 90 min; ribosome preparation buffer, 28 +/- 1 C; Ki calculated from IC50
[5] = molecular target: 70S ribosome isolated from E. coli BW25113 (E. coli (endogenous in E. coli BW25113)); test: fluorescence polarisation; direct titration: 2-fold dilution series (22 steps) of crude 70S ribosome extract, cf-labeled peptide (10 uL, 40 nmol/L) added; ribosome preparation buffer (20 mmol/L HEPES-KOH, 6 mmol/L MgCl2, 30 mmol/L NH4Cl, pH 7.6); 28 +/- 1 C, 90 min

Row | Compound | Residual iTT (sfGFP expression relative to no PrAMP) [1] [%] | reduction of bacterial growth vs untreated control (E. coli RN31) [%] | RPA [pre-50S formation] [2] | fold higher Ki than Api137 [3] [fold] | Ki [4] [nM] | Kd [5] [nM]
1 | CC[C@H](C)[C@H](NC(=O)[C@H](Cc1ccc(O)cc1)NC(=O)[C@@H](NC(=O)[C@@H]1CCCN1C(=O)[C@H](CCCNC(=N)N)NC(=O)[C@H](CC(N)=O)NC(=O)[C@H](CC(N)=O)NC(=O)[C@H](CCCN)N=C(N(C)C)N(C)C)C(C)C)C(=O)N1CCC[C@H]1C(=O)N[C@@H](CCCNC(=N)N)C(=O)N1CCC[C@H]1C(=O)N[C@@H](CCCNC(=N)N)C(=O)N1C[C@H](F)C[C@H]1C(=O)N1CCC[C@H]1C(=O)N[C@@H](Cc1c[nH]cn1)C(=O)N1CCC[C@H]1C(=O)N[C@@H](CCCNC(=N)N)C(=O)N[C@@H](CC(C)C)C(=O)O [Api844] ({Orn(α-tetramethylguanidino)}-NNRPVYIPRPR[Pro(trans-4-F)]PHPRL-OH) | 28 ± 1.2 | 70 | yes | 8 |  | 
2 | Api137 (peptide) |  |  |  |  | 2.6 | 
3 | CC[C@H](C)[C@H](NC(=O)[C@H](Cc1ccc(O)cc1)NC(=O)[C@@H](NC(=O)[C@@H]1CCCN1C(=O)[C@H](CCCNC(=N)N)NC(=O)[C@H](CC(N)=O)NC(=O)[C@H](CC(N)=O)NC(=O)[C@H](CCCN)N=C(N(C)C)N(C)C)C(C)C)C(=O)N1CCC[C@H]1C(=O)N[C@@H](CCCNC(=N)N)C(=O)N1CCC[C@H]1C(=O)N[C@@H](CCCNC(=N)N)C(=O)N1C[C@@H](F)C[C@H]1C(=O)N1CCC[C@H]1C(=O)N[C@@H](Cc1c[nH]cn1)C(=O)N1CCC[C@H]1C(=O)N[C@@H](CCCNC(=N)N)C(=O)N[C@@H](CC(C)C)C(=O)O [Api843] ({Orn(α-tetramethylguanidino)}-NNRPVYIPRPR[Pro(cis-4-F)]PHPRL-OH) | 28 ± 3.2 | 56 | yes |  |  | 
4 | 5(6)-carboxyfluorescein-labeled Api137 (peptide) |  |  |  |  |  | 244
